Results taken from US20170065564A1, “BIS-CYCLIC GUANIDINE COMPOUND COMPOSITIONS, METHODS OF USE AND TREATMENT THEREOF” (University of South Florida, priority 2014, published 2017).
≈ marks a conversion by molar mass, not a printed value.

Experiments:
K. pneumoniae = assay: Resistance serial passage assay; assay type: cell-based, Klebsiella pneumoniae; conditions: 8 passages, concentration doubled each day
In short: (§1)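 Cultures were diluted 1:100 and exposed to compound starting at half MIC, incubated 24 h at 37 °C. Each day, cells were passaged 1:100 into fresh media with compound at 2-fold higher concentration, for eight days in total. Run in triplicate.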

A. baumannii = assay: Resistance serial passage assay; assay type: cell-based, Acinetobacter baumannii; conditions: 8 passages, concentration doubled each day
In short: as §1

Enterobacter cloacae = assay: MIC micro broth dilution assay; assay type: cell-based; conditions: for MIC: Enterobacter cloacae
In short: (§2)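 Multidrug-resistant clinical ESKAPE isolates were grown overnight (Gram-positives in TSB, Gram-negatives in LB), diluted 1:1,000 and exposed to decreasing compound concentrations in DMF (≤2.0% DMF).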

Enterococcus faecium = assay: MIC micro broth dilution assay; assay type: cell-based; conditions: for MIC: Enterococcus faecium
In short: as §2

Pseudomonas aeruginosa = assay: MIC micro broth dilution assay; assay type: cell-based; conditions: for MIC: Pseudomonas aeruginosa
Description: For this study we used a representative panel of multi-drug resistant clinical ESKAPE pathogen isolates (Supplemental Table S6).^42 43 3a, 44 45 Gram-positive organisms were grown in tryptic soy broth media (TSB), whilst Gram-negative organisms were grown in lysogeny Broth (LB), as described by us previously. ^43 MIC and MBC determination assays.
Broth cultures of ESKAPE strains were grown overnight before being diluted 1 in 1,000 in fresh media. Sterile 96-well plates were loaded with culture and compounds (in DMF) were added at decreasing concentrations to equal a total volume of 200 μl per well. Care was taken to not add more than 2.0% DMF to any well. Plates were then incubated at 37° C., and MICs determined after 24 hours by visual inspection for a lack of turbidity in wells. All assays were performed in triplicate with identical results obtained. For both the scaffold ranking and positional scanning samples, relative broad-spectrum activity was determined via stacked scores: […]

[1] = system: Staphylococcus aureus (USA300 strain FPR3757); assay: Murine model of lethal peritonitis; assay type: in vivo, mice; conditions: 2× MIC, I.M., 1 h post-infection, six mice per group
In short: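 Mice (six per group) received 1×10^8 CFU ml^−1 S. aureus USA300 FPR3757 in PBS with 5% mucin intraperitoneally; compounds were given I.M., vancomycin control I.V., 1 h post-infection. Survival was monitored twice daily for five days with a pre-moribund endpoint, and groups were compared by log rank test.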

Staphylococcus aureus = assay: MIC micro broth dilution assay; assay type: cell-based; conditions: for MIC: Staphylococcus aureus
In short: as §2

[2] = system: Pseudomonas aeruginosa biofilm; assay: Minimum biofilm eradication concentration (MBEC) assay; assay type: cell-based; conditions: 24 h biofilm, purified compound
Description: (§3) The minimum biofilm eradication concentration (MBEC) was determined in 96-well microtiter plates as follows. Broth cultures of ESKAPE strains were grown using the conditions described above. Biofilms for each of the ESKAPE pathogens were generated from these as we have previously described for S. aureus, however human serum was not used for non-staphylococcal organisms.^44 46 For all organisms, biofilms were developed by standardizing an overnight culture into fresh media to an OD600 of 0.5 and adding 150 μl into each well of a 96-well microtiter plate. […] These cultures were incubated at 37° C. overnight alongside no drug controls. After 24 hours, the media was removed from wells and the biofilm resuspended in phosphate buffered saline (PBS). Cultures were mixed by vigorous pipetting, before being serially diluted in PBS, and plated in duplicate on relevant agar. Plates were incubated at 37° C. for 24 hours, and CFUs determined by enumeration. Each analysis was performed using three technical replicates, and antibiofilm activity was determined by comparing treated to untreated samples.

[3] = system: Enterococcus faecium biofilm; assay: as above; assay type: cell-based; conditions: 24 h biofilm, purified compound
Description: as §3

[4] = system: Klebsiella pneumoniae biofilm; assay: as above; assay type: cell-based; conditions: 24 h biofilm, purified compound
Description: as §3

[5] = system: Enterobacter cloacae biofilm; assay: as above; assay type: cell-based; conditions: 24 h biofilm, purified compound
Description: as §3

[6] = system: Staphylococcus aureus biofilm; assay: as above; assay type: cell-based; conditions: 24 h biofilm, purified compound
Description: as §3

[7] = system: Acinetobacter baumannii biofilm; assay: as above; assay type: cell-based; conditions: 24 h biofilm, purified compound
Description: as §3

[8] = panel of E. cloacae clinical isolates

CCCC[C@H]1CN(CCCC[C@H]2CNC(=N)N2CCc2cccc(C(F)(F)F)c2)C(=N)N1CCCCC1CCCCC1 [Compound 2, (S)-4-butyl-3-(4-cyclohexylbutyl)-1-(4-((S)-2-imino-3-(3-(trifluoromethyl)phenethyl)imidazolidin-4-yl)butyl)imidazolidin-2-imine]
increase in MIC after serial passage (K. pneumoniae): 8 fold | increase in MIC after serial passage (A. baumannii): 8 fold | stacked score activity, 100/MIC, E (Enterobacter cloacae; E. cloacae): 20 | MIC (Enterobacter cloacae; E. cloacae isolate 1404): 2 µM (≈ 1.18 µg/mL) | MIC (Enterobacter cloacae; E. cloacae isolate 1405): 2 µM (≈ 1.18 µg/mL) | MIC (Enterobacter cloacae; E. cloacae isolate 1430): 2 µM (≈ 1.18 µg/mL) | MIC (Enterobacter cloacae; E. cloacae isolate 1431): 2 µM (≈ 1.18 µg/mL) | MIC (Enterobacter cloacae; E. cloacae isolate 1445): 2 µM (≈ 1.18 µg/mL) | MIC (Enterobacter cloacae; E. cloacae isolate 1446): 7 µM (≈ 4.14 µg/mL) | MIC (Enterobacter cloacae; E. cloacae isolate 1447): 3 µM (≈ 1.77 µg/mL) | MIC (Enterobacter cloacae; E. cloacae isolate 1448): 3 µM (≈ 1.77 µg/mL) | MIC (Enterobacter cloacae; E. cloacae isolate 1454): 2 µM (≈ 1.18 µg/mL) | MIC (Enterobacter cloacae; E. cloacae isolate 1455): 2 µM (≈ 1.18 µg/mL) | MIC (Enterobacter cloacae; purified compound, Table 1): 1.52 µM (≈ 0.898 µg/mL) | concentration inhibiting 70% of strains (Enterobacter cloacae; [8]): 2 µM | concentration inhibiting 90% of isolates (Enterobacter cloacae; [8]): 5 µM | stacked score activity, 100/MIC, E (Enterococcus faecium; E. faecium): 50 | MIC (Enterococcus faecium; E. faecium isolate 1406): 2 µM (≈ 1.18 µg/mL) | MIC (Enterococcus faecium; E. faecium isolate 1407): 2 µM (≈ 1.18 µg/mL) | MIC (Enterococcus faecium; E. faecium isolate 1432): 2 µM (≈ 1.18 µg/mL) | MIC (Enterococcus faecium; E. faecium isolate 1438): 2 µM (≈ 1.18 µg/mL) | MIC (Enterococcus faecium; E. faecium isolate 1439): 2 µM (≈ 1.18 µg/mL) | MIC (Enterococcus faecium; E. faecium isolate 1443): 2 µM (≈ 1.18 µg/mL) | MIC (Enterococcus faecium; E. faecium isolate 1444): 2 µM (≈ 1.18 µg/mL) | MIC (Enterococcus faecium; E. faecium isolate 1449): 2 µM (≈ 1.18 µg/mL) | MIC (Enterococcus faecium; E. faecium isolate 1450): 2 µM (≈ 1.18 µg/mL) | MIC (Enterococcus faecium; E. faecium isolate 1451): 2 µM (≈ 1.18 µg/mL) | MIC (Enterococcus faecium; purified compound, Table 1): 1.52 µM (≈ 0.898 µg/mL) | MIC (Pseudomonas aeruginosa; P. aeruginosa isolate 1414): 3 µM (≈ 1.77 µg/mL) | MIC (Pseudomonas aeruginosa; P. aeruginosa isolate 1415): 3 µM (≈ 1.77 µg/mL) | MIC (Pseudomonas aeruginosa; P. aeruginosa isolate 1416): 2 µM (≈ 1.18 µg/mL) | MIC (Pseudomonas aeruginosa; P. aeruginosa isolate 1417): 3 µM (≈ 1.77 µg/mL) | MIC (Pseudomonas aeruginosa; P. aeruginosa isolate 1418): 7 µM (≈ 4.14 µg/mL) | MIC (Pseudomonas aeruginosa; P. aeruginosa isolate 1419): 3 µM (≈ 1.77 µg/mL) | MIC (Pseudomonas aeruginosa; P. aeruginosa isolate 1420): 3 µM (≈ 1.77 µg/mL) | MIC (Pseudomonas aeruginosa; P. aeruginosa isolate 1421): 3 µM (≈ 1.77 µg/mL) | MIC (Pseudomonas aeruginosa; P. aeruginosa isolate 1422): 3 µM (≈ 1.77 µg/mL) | MIC (Pseudomonas aeruginosa; P. aeruginosa isolate 1423): 2 µM (≈ 1.18 µg/mL) | MIC (Pseudomonas aeruginosa; purified compound, Table 1): 1.52 µM (≈ 0.898 µg/mL) | concentration inhibiting 90% of isolates (Pseudomonas aeruginosa; panel of P. aeruginosa clinical isolates): 5 µM | survival of infected mice over 5 day infection period [1]: only a single mouse succumbing to infection after the first day | stacked score activity, 100/MIC, S (Staphylococcus aureus; S. aureus): 33 | MIC (Staphylococcus aureus; S. aureus isolate 542): 2 µM (≈ 1.18 µg/mL) | MIC (Staphylococcus aureus; S. aureus isolate 626): 2 µM (≈ 1.18 µg/mL) | MIC (Staphylococcus aureus; S. aureus isolate 635): 2 µM (≈ 1.18 µg/mL) | MIC (Staphylococcus aureus; S. aureus isolate 648): 2 µM (≈ 1.18 µg/mL) | MIC (Staphylococcus aureus; S. aureus isolate 690): 2 µM (≈ 1.18 µg/mL) | MIC (Staphylococcus aureus; S. aureus isolate 693): 2 µM (≈ 1.18 µg/mL) | MIC (Staphylococcus aureus; S. aureus isolate 715): 2 µM (≈ 1.18 µg/mL) | MIC (Staphylococcus aureus; S. aureus isolate 728): 2 µM (≈ 1.18 µg/mL) | MIC (Staphylococcus aureus; S. aureus isolate 834): 2 µM (≈ 1.18 µg/mL) | MIC (Staphylococcus aureus; S. aureus isolate 1043): 2 µM (≈ 1.18 µg/mL) | MIC (Staphylococcus aureus; S. aureus isolate 1049): 2 µM (≈ 1.18 µg/mL) | MIC (Staphylococcus aureus; purified compound, Table 1): 1.52 µM (≈ 0.898 µg/mL) | MBEC50 [2]: 30.62 µM | MBEC50 [3]: 29.20 µM | MBEC50 [4]: 4.65 µM | MBEC50 [5]: 13.44 µM | MBEC50 [6]: 2.18 µM | MBEC50 [7]: 15.84 µM
